Like-named read-outs stand apart in the source and are kept apart here.

The source of these data is paper PMC8973362, “5-(Sulfamoyl)thien-2-yl 1,3-oxazole inhibitors of carbonic anhydrase II with hydrophilic periphery” (Journal of Enzyme Inhibition and Medicinal Chemistry, 2022).

One experiment has as its target T1, hCA IV (Homo sapiens, UniProt P22748).
T1 construct: made in house
As to the kind of experiment: stopped-flow CO2 hydrase assay, hCA IV. Format: biochemical.

The target in a further experiment is T2, hCA I (Homo sapiens, UniProt P00915).
T2 construct: made in house
T2 sequence (P00915 whole entry): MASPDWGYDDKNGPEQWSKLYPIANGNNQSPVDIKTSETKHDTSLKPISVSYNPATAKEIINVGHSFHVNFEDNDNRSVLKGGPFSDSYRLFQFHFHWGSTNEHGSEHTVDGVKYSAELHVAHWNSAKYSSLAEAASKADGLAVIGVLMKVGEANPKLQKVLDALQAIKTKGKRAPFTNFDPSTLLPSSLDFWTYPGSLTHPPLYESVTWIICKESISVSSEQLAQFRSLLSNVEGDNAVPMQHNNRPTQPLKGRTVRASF
As to the kind of experiment: stopped-flow CO2 hydrase assay, hCA I. Format: biochemical.

The target of the next experiment is T3, hCA II (Homo sapiens, UniProt P00918).
T3 construct: made in house
In words: stopped-flow CO2 hydrase assay, hCA II. The experiment is classed as biochemical.

The target in a further experiment is T4, hCA XII (Homo sapiens, UniProt O43570).
T4 construct: made in house
T4 sequence (O43570 25-354): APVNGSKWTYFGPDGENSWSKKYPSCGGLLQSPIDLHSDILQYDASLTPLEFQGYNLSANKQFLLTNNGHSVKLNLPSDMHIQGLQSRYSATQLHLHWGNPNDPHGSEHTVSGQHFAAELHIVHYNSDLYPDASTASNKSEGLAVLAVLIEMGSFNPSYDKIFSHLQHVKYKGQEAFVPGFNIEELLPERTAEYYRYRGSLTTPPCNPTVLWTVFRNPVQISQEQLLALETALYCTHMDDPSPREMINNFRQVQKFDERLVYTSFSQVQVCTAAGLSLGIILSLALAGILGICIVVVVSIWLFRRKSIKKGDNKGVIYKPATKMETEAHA
As to the kind of experiment: stopped-flow CO2 hydrase assay, hCA XII. The experiment is classed as biochemical.

Another experiment has as its system intraocular pressure. In words: intraocular pressure (IOP) lowering in normotensive rabbits. The experiment is classed as in vivo. The note with it: 1% eye drop, normotensive New Zealand White rabbits, n = 6, tested twice; comparable to 1 (dorzolamide, 2% eye drops).

T1 sequence (P22748 19-312): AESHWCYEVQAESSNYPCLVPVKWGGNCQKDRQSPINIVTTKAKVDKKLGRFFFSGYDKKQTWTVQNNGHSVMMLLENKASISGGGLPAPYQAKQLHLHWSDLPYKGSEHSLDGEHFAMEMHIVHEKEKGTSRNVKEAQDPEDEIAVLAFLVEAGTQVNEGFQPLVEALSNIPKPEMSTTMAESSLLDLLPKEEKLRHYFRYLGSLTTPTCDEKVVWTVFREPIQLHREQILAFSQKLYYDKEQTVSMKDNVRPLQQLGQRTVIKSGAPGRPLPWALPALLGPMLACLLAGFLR

For orientation: Ki means the dissociation constant of the complex between target and ligand, obtained from inhibition or displacement. For `NS(=O)(=O)c1ccc(-c2cnc(C(=O)N3CCNCC3)o2)s1` [7a], the Ki was found to be 21.6 nM on hCA IV, 4 nM at hCA I, 0.069 nM at hCA II and 3.9 nM on hCA XII. Moreover, the IOP lowering effect result in the experiment with intraocular pressure is “clear IOP lowering effect”.

As for `NS(=O)(=O)c1ccc(-c2cnc(C(=O)NC3CCNCC3)o2)s1` [7b], the Ki on hCA I worked out at 56.8 nM; at hCA XII, 8.9 nM.

As for `NC1CCN(C(=O)c2ncc(-c3ccc(S(N)(=O)=O)s3)o2)CC1` [7c], the Ki was determined as 30.6 nM on hCA IV, 31.3 nM on hCA I, 0.41 nM at hCA II and 5.7 nM at hCA XII.

Take `NCCNC(=O)c1ncc(-c2ccc(S(N)(=O)=O)s2)o1` [7d]: the inhibition constant Ki at hCA I turned out to be 72.9 nM; at hCA XII it was 9.3 nM.

In the case of `NCCCNC(=O)c1ncc(-c2ccc(S(N)(=O)=O)s2)o1` [7e], the Ki on hCA IV (mean from three assays by stopped flow technique, errors ± 5–10%, read-out: Ki hCA IV) is 4.6 nM; at hCA I (mean from three assays by stopped flow technique, errors ± 5–10%, read-out: Ki hCA I), 58.3 nM; at hCA II (mean from three assays by stopped flow technique, errors ± 5–10%, read-out: Ki hCA II) it was 3.1 nM; at hCA XII (mean from three assays by stopped flow technique, errors ± 5–10%, read-out: Ki hCA XII), 8.8 nM.
